Structures can show the parent of a compound that is named as a salt.
System: immortalized Fuchs' endothelial corneal dystrophy cells
Assay: Concentration-dependent caspase 3/7 activity under TGF-β2 stimulation (Example 3)
Assay type: cell-based
Details: Homo sapiens, TGF-β2 10 ng/mL, 28 hours; for activity at 0.01 µM: agent 10 nM; for activity at 0.1 µM: agent 100 nM; for activity at 1 µM: agent 1 μM; for activity at 10 µM: agent 10 μM; for activity at 0.001 µM: agent 1 nM
Description: 7×10^3 immortalized Fuchs' endothelial corneal dystrophy cells were seeded on a 96-well plate and were cultured for 24 hours under the condition of 5% CO2 at 37° C.
After 28 hours under the condition of 5% CO2 at 37° C., cell morphology was observed using a phase difference microscope. Caspase 3/7 activity was then measured using Caspase-Glo 3/7 Assay (Promega, #G8091). DMEM+2% FBS+1% P/S was used as the medium. Caspase 3/7 activity and cell viability in this example were measured using GloMax-Multi Detection System (Promega, E7051).
Caspase 3/7 activity below 80% was used as a indicator indicating whether an agent can be used for treating or preventing a corneal endothelial condition, disorder, or disease, or whether an agent can be used as a caspase inhibitor (the underlines in FIG. 4A-1, FIG. 4A-2 and FIG. 4A-3, and FIG. 4B-1, FIG. 4B-2 and FIG. 4B-3).

With `CC(=O)OCC(=O)[C@@]12OC3(CCCC3)O[C@@H]1C[C@H]1[C@@H]3CCC4=CC(=O)C=C[C@]4(C)[C@@]3(F)[C@@H](O)C[C@@]12C` [Amcinonide] the activity at 0.01 µM was ≤ 80%, the activity at 0.1 µM was ≤ 80% and the activity at 1 µM was ≤ 80%. For the same compound, the activity at 10 µM was ≤ 80%.
In the case of `O=C1CCc2ccc(OCCCCN3CCN(c4cccc(Cl)c4Cl)CC3)cc2N1` [Aripiprazole], the activity at 10 µM is reported as ≤ 80%.
In the case of `CN1CC2c3ccccc3Oc3ccc(Cl)cc3C2C1` (centres unmarked) [Asenapine Maleate], the activity at 10 µM is reported as ≤ 80%.
In the case of `CCC(=O)OCC(=O)[C@@]1(OC(=O)CC)[C@@H](C)C[C@H]2[C@@H]3CCC4=CC(=O)C=C[C@]4(C)[C@@]3(Cl)[C@@H](O)C[C@@]21C` [Beclomethasone Dipropionate], the activity at 0.1 µM is reported as ≤ 80%, the activity at 1 µM is reported as ≤ 80% and the activity at 10 µM is reported as ≤ 80%.
`C[C@H]1C[C@H]2[C@@H]3CCC4=CC(=O)C=C[C@]4(C)[C@@]3(F)[C@@H](O)C[C@]2(C)[C@@]1(O)C(=O)CO` [Betamethasone] was tested, and the activity at 0.1 µM was ≤ 80%, the activity at 1 µM was ≤ 80% and the activity at 10 µM was ≤ 80%.
For `CC(C)C[C@H]1C(=O)N2CCC[C@H]2[C@]2(O)O[C@](NC(=O)[C@@H]3C=C4c5cccc6[nH]c(Br)c(c56)C[C@H]4N(C)C3)(C(C)C)C(=O)N12` [Bromocriptine Mesylate], the activity at 10 µM was ≤ 80%.
In the case of `CCCC1O[C@@H]2C[C@H]3[C@@H]4CCC5=CC(=O)C=C[C@]5(C)[C@H]4[C@@H](O)C[C@]3(C)[C@]2(C(=O)CO)O1` (some centres unmarked) [Budesonide], the activity at 0.001 µM is reported as ≤ 80%, the activity at 0.01 µM is reported as ≤ 80% and the activity at 0.1 µM is reported as ≤ 80%. The activity at 1 µM was ≤ 80% and the activity at 10 µM was ≤ 80%.
With `C=C1/C(=C\C=C2/CCC[C@]3(C)[C@@H]([C@H](C)CCCC(C)(C)O)CC[C@@H]23)C[C@@H](O)C[C@@H]1O` [Calcitriol] the activity at 10 µM was ≤ 80%.
With `COc1ccccc1OCCNCC(O)COc1cccc2[nH]c3ccccc3c12` (centres unmarked) [Carvedilol] the activity at 10 µM was ≤ 80%.
For `CCC(=O)O[C@]1(C(=O)CCl)[C@@H](C)C[C@H]2[C@@H]3CCC4=CC(=O)C=C[C@]4(C)[C@@]3(F)[C@@H](O)C[C@@]21C` [Clobetasol Propionate], the activity at 1 pM (agent 1 pM) was ≤ 80%, the activity at 0.01 µM was ≤ 80% and the activity at 0.1 µM was ≤ 80%. For the same compound, the activity at 1 µM was ≤ 80% and the activity at 10 µM was ≤ 80%.
For `O=C(O)c1ccc(-n2nc(-c3ccccc3O)nc2-c2ccccc2O)cc1` [Deferasirox], the activity at 10 µM was ≤ 80%.
In the case of `CC1(C)O[C@@H]2C[C@H]3[C@@H]4CCC5=CC(=O)C=C[C@]5(C)[C@H]4[C@@H](O)C[C@]3(C)[C@]2(C(=O)CO)O1` [Desonide], the activity at 0.1 µM is reported as ≤ 80%, the activity at 1 µM is reported as ≤ 80% and the activity at 10 µM is reported as ≤ 80%.
With `C[C@@H]1C[C@H]2[C@@H]3CCC4=CC(=O)C=C[C@]4(C)[C@@]3(F)[C@@H](O)C[C@]2(C)[C@H]1C(=O)CO` [Desoximetasone] the activity at 0.01 µM was ≤ 80%, the activity at 0.1 µM was ≤ 80% and the activity at 1 µM was ≤ 80%. For the same compound, the activity at 10 µM was ≤ 80%.
`C[C@@H]1C[C@H]2[C@@H]3CCC4=CC(=O)C=C[C@]4(C)[C@@]3(F)[C@@H](O)C[C@]2(C)[C@@]1(O)C(=O)CO` [Dexamethasone] was tested, and the activity at 0.01 µM was ≤ 80%, the activity at 0.1 µM was ≤ 80% and the activity at 1 µM was ≤ 80%. The activity at 10 µM was ≤ 80%.
In the case of `CCCC(=O)O[C@]1(C(=O)COC(C)=O)CC[C@H]2[C@@H]3C[C@H](F)C4=CC(=O)C=C[C@]4(C)[C@@]3(F)[C@@H](O)C[C@@]21C` [Difluprednate], the activity at 0.001 µM is reported as ≤ 80%, the activity at 0.01 µM is reported as ≤ 80% and the activity at 0.1 µM is reported as ≤ 80%. For the same compound, the activity at 1 µM was ≤ 80% and the activity at 10 µM was ≤ 80%.
In the case of `CN1C[C@H](C(=O)N[C@]2(C)O[C@@]3(O)[C@@H]4CCCN4C(=O)[C@H](Cc4ccccc4)N3C2=O)C[C@@H]2c3cccc4[nH]cc(c34)C[C@H]21` [Dihydroergotamine Mesylate], the activity at 10 µM is reported as ≤ 80%.
In the case of `CO[C@H]1C[C@@H]2CC[C@@H](C)[C@@](O)(O2)C(=O)C(=O)N2CCCC[C@H]2C(=O)O[C@H]([C@H](C)C[C@@H]2CC[C@@H](OCCO)[C@H](OC)C2)CC(=O)[C@H](C)/C=C(\C)[C@@H](O)[C@@H](OC)C(=O)[C@H](C)C[C@H](C)/C=C/C=C/C=C/1C` [Everolimus], the activity at 0.01 µM is reported as ≤ 80%, the activity at 0.1 µM is reported as ≤ 80% and the activity at 1 µM is reported as ≤ 80%. The activity at 10 µM was ≤ 80%.
For `CC(=O)OCC(=O)[C@@]1(O)CC[C@H]2[C@@H]3CCC4=CC(=O)CC[C@]4(C)[C@@]3(F)[C@@H](O)C[C@@]21C` [Fludrocortisone Acetate], the activity at 0.1 µM was ≤ 80%, the activity at 1 µM was ≤ 80% and the activity at 10 µM was ≤ 80%.
For `CC1(C)O[C@@H]2C[C@H]3[C@@H]4C[C@H](F)C5=CC(=O)C=C[C@]5(C)[C@@]4(F)[C@@H](O)C[C@]3(C)[C@]2(C(=O)CO)O1` [Fluocinolone Acetonide], the activity at 10 pM (agent 10 pM) was ≤ 80%, the activity at 0.01 µM was ≤ 80% and the activity at 0.1 µM was ≤ 80%. For the same compound, the activity at 1 µM was ≤ 80% and the activity at 10 µM was ≤ 80%.
With `CC(=O)[C@@]1(O)CC[C@H]2[C@@H]3C[C@H](C)C4=CC(=O)C=C[C@]4(C)[C@@]3(F)[C@@H](O)C[C@@]21C` [Fluorometholone] the activity at 0.1 µM was ≤ 80%, the activity at 1 µM was ≤ 80% and the activity at 10 µM was ≤ 80%.
`CC1(C)O[C@@H]2C[C@H]3[C@@H]4C[C@H](F)C5=CC(=O)CC[C@]5(C)[C@H]4[C@@H](O)C[C@]3(C)[C@]2(C(=O)CO)O1` [Flurandrenolide] was tested, and the activity at 0.01 µM was ≤ 80%, the activity at 0.1 µM was ≤ 80% and the activity at 1 µM was ≤ 80%. The activity at 10 µM was ≤ 80%.
With `C[C@]12CC[C@@H]3c4ccc(O)cc4C[C@@H](CCCCCCCCC[S+]([O-])CCCC(F)(F)C(F)(F)F)[C@H]3[C@@H]1CC[C@@H]2O` (some centres unmarked) [Fulvestrant] the activity at 0.01 µM was ≤ 80%, the activity at 0.1 µM was ≤ 80% and the activity at 1 µM was ≤ 80%. For the same compound, the activity at 10 µM was ≤ 80%.
For `CC1(C)O[C@@H]2C[C@H]3[C@@H]4CCC5=CC(=O)CC[C@]5(C)[C@@]4(F)[C@@H](O)C[C@]3(C)[C@]2(C(=O)CCl)O1` [Halcinonide], the activity at 0.01 µM was ≤ 80%, the activity at 0.1 µM was ≤ 80% and the activity at 1 µM was ≤ 80%. For the same compound, the activity at 10 µM was ≤ 80%.
`CC(=O)N1CCN(c2ccc(OCC3COC(Cn4ccnc4)(c4ccc(Cl)cc4Cl)O3)cc2)CC1` (centres unmarked) [Ketoconazole] was tested, and the activity at 10 µM was ≤ 80%.
For `C[C@H]1C[C@@H]2[C@H]([C@@H](O)C[C@@]3(C)[C@H]2CC[C@]3(O)C(=O)CO)[C@@]2(C)C=CC(=O)C=C12` [Methylprednisolone], the activity at 0.1 µM was ≤ 80%, the activity at 1 µM was ≤ 80% and the activity at 10 µM was ≤ 80%.
In the case of `C[C@@H]1C[C@H]2[C@@H]3CCC4=CC(=O)C=C[C@]4(C)[C@@]3(Cl)[C@@H](O)C[C@]2(C)[C@@]1(OC(=O)c1ccco1)C(=O)CCl` [Mometasone Furoate], the activity at 0.01 µM is reported as ≤ 80%, the activity at 0.1 µM is reported as ≤ 80% and the activity at 1 µM is reported as ≤ 80%. For the same compound, the activity at 10 µM was ≤ 80%.
With `COc1c(C)c2c(c(O)c1C/C=C(\C)CCC(=O)OCCN1CCOCC1)C(=O)OC2` [Mycophenolate Mofetil] the activity at 0.01 µM was ≤ 80%, the activity at 0.1 µM was ≤ 80% and the activity at 1 µM was ≤ 80%. The activity at 10 µM was ≤ 80%.
With `COc1c(C)c2c(c(O)c1C/C=C(\C)CCC(=O)O)C(=O)OC2` [Mycophenolic Acid] the activity at 0.01 µM was ≤ 80%, the activity at 0.1 µM was ≤ 80% and the activity at 1 µM was ≤ 80%. For the same compound, the activity at 10 µM was ≤ 80%.
With `COC(=O)C1=C(C)NC(C)=C(C(=O)OCC(C)C)C1c1ccccc1[N+](=O)[O-]` (centres unmarked) [Nisoldipine] the activity at 10 µM was ≤ 80%.
For `CC(=O)Oc1ccccc1C(=O)Nc1ncc([N+](=O)[O-])s1` [Nitazoxanide], the activity at 10 µM was ≤ 80%.
In the case of `CC[C@@H]1/C=C(\C)C[C@H](C)C[C@H](OC)[C@H]2O[C@@](O)(C(=O)C(=O)N3CCCC[C@H]3C(=O)O[C@H](/C(C)=C/[C@@H]3CC[C@H](Cl)[C@H](OC)C3)[C@H](C)[C@@H](O)CC1=O)[C@H](C)C[C@@H]2OC` [Pimecrolimus], the activity at 0.01 µM is reported as ≤ 80%, the activity at 1 µM is reported as ≤ 80% and the activity at 10 µM is reported as ≤ 80%.
With `C[C@]12C=CC(=O)C=C1CC[C@@H]1[C@@H]2[C@@H](O)C[C@@]2(C)[C@H]1CC[C@]2(O)C(=O)CO` [Prednisolone] the activity at 0.1 µM was ≤ 80%, the activity at 1 µM was ≤ 80% and the activity at 10 µM was ≤ 80%.
For `CCc1nc(N)nc(N)c1-c1ccc(Cl)cc1` [Pyrimethamine], the activity at 10 µM was ≤ 80%.
`CO[C@H]1/C=C/O[C@@]2(C)Oc3c(C)c(O)c4c(O)c(c(/C=N/N5CCN(C6CCCC6)CC5)c(O)c4c3C2=O)NC(=O)/C(C)=C\C=C\[C@H](C)[C@H](O)[C@@H](C)[C@@H](O)[C@@H](C)[C@H](OC(C)=O)[C@@H]1C` [Rifapentine] was tested, and the activity at 1 µM was ≤ 80%.
With `Cc1ccc(O)c([C@H](CCN(C(C)C)C(C)C)c2ccccc2)c1` [Tolterodine Tartrate] the activity at 0.001 µM was ≤ 80%, the activity at 0.01 µM was ≤ 80% and the activity at 1 µM was ≤ 80%. For the same compound, the activity at 10 µM was ≤ 80%.
`CC1(C)O[C@@H]2C[C@H]3[C@@H]4CCC5=CC(=O)C=C[C@]5(C)[C@@]4(F)[C@@H](O)C[C@]3(C)[C@]2(C(=O)CO)O1` [Triamcinolone Acetonide] was tested, and the activity at 0.01 µM was ≤ 80%, the activity at 0.1 µM was ≤ 80% and the activity at 1 µM was ≤ 80%. The activity at 10 µM was ≤ 80%.
